Patent US6914045B2, “Glycopeptide antibiotics” (Wyeth Holdings Corporation, priority 2001, dated 2005)
Converted amounts (≈) assume the structure as drawn.

Legend:
Assay in all cases: in vitro antibacterial evaluation, MIC by broth dilution
Format in all cases: cell-based
Staphylococcus sp. = conditions: broth dilution, 18 hours at 35° C.
In short: (§1)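 Following National Committee for Clinical Laboratory Standards recommendations (M7-A2), susceptibility was measured by dilution in Muller-Hinton II […]. Bacteria were seeded at 5×10^5 CFU/mL against compound concentrations from 64 down to 0.06 μg/mL.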

Escherichia coli = conditions: 18 hours at 35° C.
In short: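 Read-out: the lowest concentration at which the test strain fails to grow. Serial dilutions (64-0.06 μg/mL) in Muller-Hinton II […], 5×10^5 CFU/mL inoculum, NCCLS M7-A2 procedure.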

Streptococcus sp. = conditions: broth dilution, 18 hours at 35° C.
In short: as §1

Enterococcus sp. = conditions: broth dilution, 18 hours at 35° C.
In short: as §1

CC=C(C)C(=O)OC1C(CO)OC(OC2C(CO)OC(Oc3ccc(CC4NC(=O)C(C(C)c5ccccc5)NC(=O)CNC(=O)C(CO)NC(=O)C(C(O)C5CNC(=N)N5C5OC(CO)C(O)C(O)C5O)NC(=O)C(C(O)C5CNC(=N)N5)NC4=O)cc3)C(O)C2O)C(O)C1O (stereo not drawn) [Example 278b, Cyclo[glycyl-β-methylphenylalanyl-O-[4-O-[4-O-(2-methylbut-2-enoyl)hexopyranosyl]-hexopyranosyl]tyrosyl-3-(2-iminoimidazolidin-4-yl)seryl-3-(3-hexopyranosyl-2-imino-imidazolidin-4-yl)serylseryl]]
MIC Coagulase Negative Staphylococcus (GC 4547) (Staphylococcus sp.): 4 µg/mL (≈ 2.9 µM)
MIC Coagulase Negative Staphylococcus (GC 4548) (Staphylococcus sp.): 4 µg/mL (≈ 2.9 µM)
MIC Coagulase Negative Staphylococcus (GC 4549) (Staphylococcus sp.): 2 µg/mL (≈ 1.45 µM)
MIC Coagulase Negative Staphylococcus (GC 4551) (Staphylococcus sp.): 8 µg/mL (≈ 5.81 µM)
MIC Coagulase Negative Staphylococcus (GC 6257) (Staphylococcus sp.): 2 µg/mL (≈ 1.45 µM)
MIC Staphylococcus aureus (ATCC 29213) (Staphylococcus sp.): 8 µg/mL (≈ 5.81 µM)
MIC Staphylococcus aureus (GC 1131) (Staphylococcus sp.): 8 µg/mL (≈ 5.81 µM)
MIC Staphylococcus aureus (GC 3051) (Staphylococcus sp.): 4 µg/mL (≈ 2.9 µM)
MIC Staphylococcus aureus (GC 3053) (Staphylococcus sp.): 8 µg/mL (≈ 5.81 µM)
MIC Staphylococcus aureus (GC 4541) (Staphylococcus sp.): 8 µg/mL (≈ 5.81 µM)
MIC Staphylococcus aureus (GC 4542) (Staphylococcus sp.): 8 µg/mL (≈ 5.81 µM)
MIC Staphylococcus aureus (GC 4544) (Staphylococcus sp.): 8 µg/mL (≈ 5.81 µM)
MIC Staphylococcus aureus (GC 4545) (Staphylococcus sp.): 4 µg/mL (≈ 2.9 µM)
MIC Staphylococcus aureus-SMITH (GC 4543) (Staphylococcus sp.): 8 µg/mL (≈ 5.81 µM)
MIC Staphylococcus haemolyticus (GC 4546) (Staphylococcus sp.): 4 µg/mL (≈ 2.9 µM)
MIC Staphylococcus aureus (ATCC 29213) (Staphylococcus sp.; strain ATCC 29213): 8 µg/mL (≈ 5.81 µM)
MIC Staphylococcus aureus (GC 1131) (Staphylococcus sp.; strain GC 1131): 8 µg/mL (≈ 5.81 µM)
MIC Staphylococcus aureus (GC 3051) (Staphylococcus sp.; strain GC 3051): 4 µg/mL (≈ 2.9 µM)
MIC Staphylococcus aureus (GC 3053) (Staphylococcus sp.; strain GC 3053): 8 µg/mL (≈ 5.81 µM)
MIC Staphylococcus aureus (GC 4541) (Staphylococcus sp.; strain GC 4541): 8 µg/mL (≈ 5.81 µM)
MIC Staphylococcus aureus (GC 4542) (Staphylococcus sp.; strain GC 4542): 8 µg/mL (≈ 5.81 µM)
MIC Staphylococcus aureus (GC 4544) (Staphylococcus sp.; strain GC 4544): 8 µg/mL (≈ 5.81 µM)
MIC Staphylococcus aureus (GC 4545) (Staphylococcus sp.; strain GC 4545): 4 µg/mL (≈ 2.9 µM)
MIC Staphylococcus haemolyticus (GC 4546) (Staphylococcus sp.; strain GC 4546): 4 µg/mL (≈ 2.9 µM)
MIC Coagulase Negative Staphylococcus (GC 4547) (Staphylococcus sp.; strain GC 4547): 4 µg/mL (≈ 2.9 µM)
MIC Coagulase Negative Staphylococcus (GC 4548) (Staphylococcus sp.; strain GC 4548): 4 µg/mL (≈ 2.9 µM)
MIC Coagulase Negative Staphylococcus (GC 4549) (Staphylococcus sp.; strain GC 4549): 2 µg/mL (≈ 1.45 µM)
MIC Coagulase Negative Staphylococcus (GC 4551) (Staphylococcus sp.; strain GC 4551): 8 µg/mL (≈ 5.81 µM)
MIC Coagulase Negative Staphylococcus (GC 6257) (Staphylococcus sp.; strain GC 6257): 2 µg/mL (≈ 1.45 µM)
MIC Staphylococcus aureus-SMITH (GC 4543) (Staphylococcus sp.; strain SMITH GC 4543): 8 µg/mL (≈ 5.81 µM)
MIC Escherichia coli (ATCC 25922) (Escherichia coli; Escherichia coli (ATCC 25922)): >64 µg/mL
MIC Escherichia coli (GC 4559) (Escherichia coli; Escherichia coli (GC 4559)): >64 µg/mL
MIC Escherichia coli (GC 4560) (Escherichia coli; Escherichia coli (GC 4560)): 4 µg/mL (≈ 2.9 µM)
MIC Streptococcus pneumoniae (ATCC 6301) (Streptococcus sp.; strain ATCC 6301): 1 µg/mL (≈ 0.726 µM)
MIC Streptococcus pneumoniae (GC 1894) (Streptococcus sp.; strain GC 1894): 1 µg/mL (≈ 0.726 µM)
MIC Streptococcus pyogenes (GC 4563) (Streptococcus sp.; strain GC 4563): 2 µg/mL (≈ 1.45 µM)
MIC Streptococcus agalactiae (GC 4564) (Streptococcus sp.; strain GC 4564): 4 µg/mL (≈ 2.9 µM)
MIC Streptococcus pneumoniae (GC 4565) (Streptococcus sp.; strain GC 4565): 2 µg/mL (≈ 1.45 µM)
MIC Enterococcus avium (GC 4558) (Enterococcus sp.; Enterococcus avium (GC 4558)): 32 µg/mL (≈ 23.2 µM)
MIC Enterococcus faecalis (ATCC 29212) (Enterococcus sp.; Enterococcus faecalis (ATCC 29212)): 32 µg/mL (≈ 23.2 µM)
MIC Enterococcus faecalis (GC 4553) (Enterococcus sp.; Enterococcus faecalis (GC 4553)): 32 µg/mL (≈ 23.2 µM)
MIC Enterococcus faecalis (GC 4554) (Enterococcus sp.; Enterococcus faecalis (GC 4554)): 32 µg/mL (≈ 23.2 µM)
MIC Enterococcus faecalis (GC 6189) (Enterococcus sp.; Enterococcus faecalis (GC 6189)): 32 µg/mL (≈ 23.2 µM)
MIC Enterococcus faecium (GC 2243) (Enterococcus sp.; Enterococcus faecium (GC 2243)): 32 µg/mL (≈ 23.2 µM)
MIC Enterococcus faecium (GC 4556) (Enterococcus sp.; Enterococcus faecium (GC 4556)): 32 µg/mL (≈ 23.2 µM)
MIC Enterococcus faecium (GC 4557) (Enterococcus sp.; Enterococcus faecium (GC 4557)): 8 µg/mL (≈ 5.81 µM)
MIC Enterococcus faecalis (ATCC 29212) (Enterococcus sp.; strain ATCC 29212): 32 µg/mL (≈ 23.2 µM)
MIC Enterococcus faecalis (GC 2242) (Enterococcus sp.; strain GC 2242): 32 µg/mL (≈ 23.2 µM)
MIC Enterococcus faecium (GC 2243) (Enterococcus sp.; strain GC 2243): 32 µg/mL (≈ 23.2 µM)
MIC Enterococcus faecalis (GC 2691) (Enterococcus sp.; strain GC 2691): 32 µg/mL (≈ 23.2 µM)
MIC Enterococcus faecalis (GC 3059) (Enterococcus sp.; strain GC 3059): 64 µg/mL (≈ 46.5 µM)
MIC Enterococcus faecalis (GC 4552) (Enterococcus sp.; strain GC 4552): 32 µg/mL (≈ 23.2 µM)
MIC Enterococcus faecalis (GC 4553) (Enterococcus sp.; strain GC 4553): 32 µg/mL (≈ 23.2 µM)
MIC Enterococcus faecalis (GC 4554) (Enterococcus sp.; strain GC 4554): 32 µg/mL (≈ 23.2 µM)
MIC Enterococcus faecium (GC 4556) (Enterococcus sp.; strain GC 4556): 32 µg/mL (≈ 23.2 µM)
MIC Enterococcus faecium (GC 4557) (Enterococcus sp.; strain GC 4557): 8 µg/mL (≈ 5.81 µM)
MIC Enterococcus avium (GC 4558) (Enterococcus sp.; strain GC 4558): 32 µg/mL (≈ 23.2 µM)
MIC Enterococcus faecalis (GC 6189) (Enterococcus sp.; strain GC 6189): 32 µg/mL (≈ 23.2 µM)
